{"source": "patent US4677111A", "about": "“N-benzoyl-N'-(3-nitrophenyl) urea compounds, and antitumorous compositions containing them” (Ishihara Sangyo Kaisha Ltd., priority 1984, dated 1987)", "key": {"p-388 leukemia cells [1]": {"system": "p-388 leukemia cells", "assay": "Test Example 1 (Intraperitoneal-intraperitoneal) antitumour activity, increase life span", "assay_type": "in vivo, BDF1 mice", "settings": "Mus musculus, P388, ip, 720 h", "protocol": "To BDF1 mice, p-388 leukemia cells were intraperitoneally inoculated in an amount of 1×10^6 cells/mouse. A test drug was intraperitoneally administered twice, i.e. one day and four days after the inoculation. […] The increase life span ILS (%) of each treated group was obtained with the number of survival days of mice of the control group to which a physiological saline was administered, being evaluated as 0. The drugs were dispersions obtained by adding small amounts of surfactants (e.g. Tween-80) to the test compounds.\nILS (%)*: Increase Life Span, calculated in accordance with the following\nformula: ILS (%) = MST100, where MST is the ratio of median survival time\nof test and control animals."}, "p-388 leukemia cells [2]": {"system": "p-388 leukemia cells", "assay": "Test Example 2 (intraperitoneal-oral) antitumour activity, increase life span", "assay_type": "in vivo, BDF1 mice", "settings": "oral drug, days 1 and 4", "protocol": "A test drug was orally administered twice i.e. one day and four days after the inoculation.\nThe mixture was pulverized in a wet system by a sand mill using glass beads (80% of particles having a particle size of not larger than 2 μm). Then, 5 parts by weight of xanthane gum (2% solution) was added thereto to obtain an aqueous suspension."}, "Acute toxicity, LD50": {"assay": "Acute toxicity, LD50", "settings": "mouse, in vivo, ip; ddY mice, intraperitoneal, Formulation Example 4", "protocol": "To ddY mice (10 animals), a drug containing one of Compound Nos. 1-4, 7, 9 and 10 of the present invention formulated in accordance with Formulation Example 4 was intraperitoneally administered, and the LD50 value was measured and found to be at least 100 mg/kg in each case, and the LD50 value of Compound No. 6 of the invention found to be at least 50 mg/kg.\nThe Compound No. 2 of the present invention was preliminarily pulverized by a centrifugal pulverizer. On the other hand, 5 parts by weight of polyoxyethylene (60) hardened castor oil, 0.2 part by weight of silicone and 0.3 part by weight of a polyoxyethylene-polyoxypropylene block polymer were added to 79.5 parts by weight of a physiological saline to obtain an aqueous solution, to which 10 parts by weight of the above pulverized Compound No. 2 of the present invention was added. The mixture was pulverized in a wet system by a sand mill using glass beads (80% of particles having a particle size of not larger than 2 μm). Then, 5 parts by weight of xanthane gum (2% solution) was added thereto to obtain an aqueous suspension."}, "[3]": {"settings": "read-out: ILS (increase life span)"}, "[4]": {"settings": "i.p. drug, days 1 and 4, 100 mg/kg/day, read-out: ILS (increase life span)"}}, "note": "Like-named read-outs stand apart in the source and are kept apart here.", "data": [{"smiles": "O=c1[nH]cc(F)c(=O)[nH]1", "note": "[5-Fluorouracil, reference compound]", "values": [{"measurement": "ILS at 60 mg/kg/day", "setting": "p-388 leukemia cells [1]; [3]", "result": 85, "unit": "%"}]}, {"smiles": "O=C(NC(=O)c1ccccc1Cl)Nc1ccc(Oc2ncc(Cl)cn2)c(Cl)c1", "note": "[Comparative Compound No. 1, N--(2chlorobenzoyl)-N'--[3chloro-4-(5-chloro-2-pyrimidinyloxy)phenyl]urea]", "values": [{"measurement": "ILS at 100 mg/kg/day", "setting": "p-388 leukemia cells [1]; [4]", "result": 33, "unit": "%"}, {"measurement": "ILS (increase life span)", "setting": "p-388 leukemia cells [2]; 800 mg/kg/day", "result": 11, "unit": "%"}, {"measurement": "ILS (increase life span)", "setting": "p-388 leukemia cells [2]; 1600 mg/kg/day", "result": 24, "unit": "%"}]}, {"smiles": "O=C(NC(=O)c1ccccc1Br)Nc1ccc(Oc2ncc(I)cn2)c(Cl)c1", "note": "[Comparative Compound No. 2, N--(2bromobenzoyl)-N'--[3chloro-4-(5-iodo-2-pyrimidinyloxy)phenyl]urea]", "values": [{"measurement": "ILS at 100 mg/kg/day", "setting": "p-388 leukemia cells [1]; [4]", "result": 65, "unit": "%"}, {"measurement": "ILS (increase life span)", "setting": "p-388 leukemia cells [2]; 400 mg/kg/day", "result": 4, "unit": "%"}, {"measurement": "ILS (increase life span)", "setting": "p-388 leukemia cells [2]; 800 mg/kg/day", "result": 2, "unit": "%"}]}, {"smiles": "O=C(NC(=O)c1ccccc1Cl)Nc1ccc(Oc2ccc(Cl)nn2)c(Cl)c1", "note": "[Comparative Compound No. 3, N--(2chlorobenzoyl)-N'--[3chloro-4-(6-chloro-3-pyridazinyloxy)phenyl]urea, reference compound]", "values": [{"measurement": "ILS at 200 mg/kg/day", "setting": "p-388 leukemia cells [1]; i.p. drug, days 1 and 4", "result": 24, "unit": "%"}]}, {"smiles": "O=C(NC(=O)c1ccccc1Cl)Nc1ccc(Oc2ccc(Br)nn2)c(Cl)c1", "note": "[Comparative Compound No. 4, N--(2chlorobenzoyl)-N'--[4(6-bromo-3-pyridazinyloxy)-3-chlorophenyl]urea, reference compound]", "values": [{"measurement": "ILS at 100 mg/kg/day", "setting": "p-388 leukemia cells [1]; [4]", "result": 36, "unit": "%"}]}, {"smiles": "O=C(NC(=O)c1ccccc1[N+](=O)[O-])Nc1ccc(Oc2ccc(C(F)(F)F)cn2)c(Cl)c1", "note": "[Comparative Compound No. 5, reference compound]", "values": [{"measurement": "ILS at 100 mg/kg/day", "setting": "p-388 leukemia cells [1]; [4]", "result": 70, "unit": "%"}]}, {"smiles": "O=C(NC(=O)c1ccccc1Cl)Nc1ccc(Oc2ccc(Br)cn2)c(Cl)c1", "note": "[Comparative Compound No. 6, N--(2chlorobenzoyl)-N'--[4(5-bromo-2-pyridyl-oxy)-3-chlorophenyl]urea, reference compound]", "values": [{"measurement": "ILS at 200 mg/kg/day", "setting": "p-388 leukemia cells [1]; i.p. drug, days 1 and 4", "result": 50, "unit": "%"}]}, {"smiles": "O=C(NC(=O)c1ccccc1[N+](=O)[O-])Nc1ccc(Oc2ncc(I)cn2)c([N+](=O)[O-])c1", "note": "[Compound No. 1, N-(2-nitrobenzoyl)-N'-[4-(5-iodo-2-pyrimidinyloxy)-3-nitrophenyl]urea]", "values": [{"measurement": "ILS at 50 mg/kg/day", "setting": "p-388 leukemia cells [1]; [3]", "result": 111, "unit": "%"}, {"measurement": "LD50", "setting": "Acute toxicity, LD50", "result": "≥ 100", "unit": "mg/kg"}]}, {"smiles": "O=C(NC(=O)c1ccccc1[N+](=O)[O-])Nc1ccc(Oc2ncc(Cl)cn2)c([N+](=O)[O-])c1", "note": "[Compound No. 2, N-(2-nitrobenzoyl)-N'-[4-(5-chloro-2-pyrimidinyloxy)-3-nitrophenyl]urea]", "values": [{"measurement": "ILS at 50 mg/kg/day", "setting": "p-388 leukemia cells [1]; [3]", "result": 134, "unit": "%"}, {"measurement": "ILS (increase life span)", "setting": "p-388 leukemia cells [2]; 200 mg/kg/day", "result": 90, "unit": "%"}, {"measurement": "ILS (increase life span)", "setting": "p-388 leukemia cells [2]; 400 mg/kg/day", "result": 108, "unit": "%"}, {"measurement": "LD50", "setting": "Acute toxicity, LD50", "result": "≥ 100", "unit": "mg/kg"}]}, {"smiles": "O=C(NC(=O)c1ccccc1[N+](=O)[O-])Nc1ccc(Oc2ncc(Br)cn2)c([N+](=O)[O-])c1", "note": "[Compound No. 3, N-(2-nitrobenzoyl)-N'-[4-(5-bromo-2-pyrimidinyloxy)-3-nitrophenyl]urea]", "values": [{"measurement": "ILS at 50 mg/kg/day", "setting": "p-388 leukemia cells [1]; [3]", "result": 120, "unit": "%"}, {"measurement": "ILS (increase life span)", "setting": "p-388 leukemia cells [2]; 200 mg/kg/day", "result": 39, "unit": "%"}, {"measurement": "ILS (increase life span)", "setting": "p-388 leukemia cells [2]; 400 mg/kg/day", "result": 46, "unit": "%"}, {"measurement": "LD50", "setting": "Acute toxicity, LD50", "result": "≥ 100", "unit": "mg/kg"}]}, {"smiles": "O=C(NC(=O)c1ccccc1Cl)Nc1ccc(Oc2ncc(Cl)cn2)c([N+](=O)[O-])c1", "note": "[Compound No. 4, N-(2-chlorobenzoyl)-N'-[4-(5-chloro-2-pyrimidinyloxy)-3-nitrophenyl]urea]", "values": [{"measurement": "ILS at 100 mg/kg/day", "setting": "p-388 leukemia cells [1]; [3]", "result": 102, "unit": "%"}, {"measurement": "LD50", "setting": "Acute toxicity, LD50", "result": "≥ 100", "unit": "mg/kg"}]}, {"smiles": "O=C(NC(=O)c1ccc(Cl)cc1[N+](=O)[O-])Nc1ccc(Oc2ncc(Cl)cn2)c([N+](=O)[O-])c1", "note": "[Compound No. 6, N-(4-chloro-2-nitrobenzoyl)-N'-[4-(5-chloro-2-pyrimidinyloxy)-3-nitrophenyl]urea]", "values": [{"measurement": "ILS at 25 mg/kg/day", "setting": "p-388 leukemia cells [1]; [3]", "result": 165, "unit": "%"}, {"measurement": "LD50", "setting": "Acute toxicity, LD50", "result": "≥ 50", "unit": "mg/kg"}]}, {"smiles": "O=C(NC(=O)c1ccccc1[N+](=O)[O-])Nc1ccc(Oc2ccc(Br)nn2)c([N+](=O)[O-])c1", "note": "[Compound No. 7, N-(2-nitrobenzoyl)-N'-[4-(6-bromo-3-pyridazinyloxy)-3-nitrophenyl]urea]", "values": [{"measurement": "ILS at 100 mg/kg/day", "setting": "p-388 leukemia cells [1]; [3]", "result": 152, "unit": "%"}, {"measurement": "LD50", "setting": "Acute toxicity, LD50", "result": "≥ 100", "unit": "mg/kg"}]}, {"smiles": "O=C(NC(=O)c1ccccc1[N+](=O)[O-])Nc1ccc(Oc2ccc(C(F)(F)F)cn2)c([N+](=O)[O-])c1", "note": "[Compound No. 9, N-(2-nitrobenzoyl)-N'-[4-(5-trifluoromethyl-2-pyridyloxy)-3-nitrophenyl]urea]", "values": [{"measurement": "ILS at 100 mg/kg/day", "setting": "p-388 leukemia cells [1]; [3]", "result": 119, "unit": "%"}, {"measurement": "LD50", "setting": "Acute toxicity, LD50", "result": "≥ 100", "unit": "mg/kg"}]}, {"smiles": "O=C(NC(=O)c1ccccc1[N+](=O)[O-])Nc1ccc(Oc2ccc(Cl)cn2)c([N+](=O)[O-])c1", "note": "[Compound No. 10, N-(2-nitrobenzoyl)-N'-[4-(5-chloro-2-pyridyloxy)-3nitrophenyl]urea]", "values": [{"measurement": "ILS at 100 mg/kg/day", "setting": "p-388 leukemia cells [1]; [3]", "result": 153, "unit": "%"}, {"measurement": "LD50", "setting": "Acute toxicity, LD50", "result": "≥ 100", "unit": "mg/kg"}]}, {"smiles": "O=C(NC(=O)c1ccccc1[N+](=O)[O-])Nc1ccc(Oc2ncc(I)cn2)c(Cl)c1", "note": "[compound 7, N--(2nitrobenzoyl)-N'--[3chloro-4-(5-iodo-2-pyrimidinyloxy)phenyl]urea]", "values": [{"measurement": "ILS (increase life span)", "setting": "p-388 leukemia cells [2]; 1600 mg/kg/day", "result": 41, "unit": "%"}]}]}
